Laboratory results from patent US6403601B1, “N-(2-phenyl-4-piperidinybutyl)-5,6,7,8-tetrahydro-1-naphthalenecarboxamides and their use as neurokinin 1 (NK1) and/or neurokinin 2 (NK2) receptor antagonists” (Astrazeneca AB, priority 1998, dated 2002).

Legend:
[1] = target: T1, NK1 (Oryctolagus cuniculus, UniProt G1SEI7); assay: Rabbit Pulmonary Artery: NK1 In Vitro Functional Assay (Test C); format: cell-based; details: agonist ASMSP
T1 construct: The pulmonary arteries are isolated from the rest of the tissues and cut in half to serve as pairs; from tissue; host or cells: rabbit pulmonary artery rings, endothelium intact
Method: Rabbit Pulmonary Artery: NK1 In Vitro Functional Assay (Test C)
The ability of a Compound of the invention to antagonize the action of the agonist Ac-[Arg^6, Sar^9, Met(O2)^11]
Male New Zealand white rabbits are euthanized via i.v. injection into an ear vein with 60 mg/kg Nembutal (50 mg/mL). Preceding the Nembutal into the vein is Heparin (1000 units/mL) at 0.0025 ml/kg for anticoagulant purposes. The chest cavity is opened from the top of the rib cage to the sternum and the heart, lungs and part of the trachea are removed. The pulmonary arteries are isolated from the rest of the tissues and cut in half to serve as pairs.
The segments are suspended between stainless steel stirrups, so as not to remove any of the endothelium, and placed in water-jacketed (37° C.) tissue baths containing physiological salt solution of the following composition (mM): NaCl, 118.0; KCl, 4.7; CaCl2, 1.8; MgCl2, 0.54; NaH2PO4, 1.0; NaHCO3, 25.0; glucose, 11.0; indomethacin, 0.005(to inhibit cyclooxygenase); and dl-Propranolol, 0.00l(to block β receptors); gassed continuously with 95% O2-5% CO2. Responses are measured on a Grass polygraph via Grass FT-03 transducers and the electrical signals (data) acquired using a Mi^2 software/hardware system for subsequent conversion to measures of relaxation. […]

[2] = target: T2, NK2 (Oryctolagus cuniculus, UniProt P79218); assay: Rabbit Pulmonary Artery: NK2 In Vitro Functional Assay (Test D); format: cell-based; details: agonist BANK; -log molar KB; read-out: Rabbit Pulmonary Artery NK2 pKb (Test D) (converted)
T2 construct: The pulmonary arteries are isolated from the rest of the tissues, then rubbed over an intimal surface to remove the endothelium; from tissue; host or cells: rabbit pulmonary artery rings, endothelium removed
T2 sequence (P79218 1-384): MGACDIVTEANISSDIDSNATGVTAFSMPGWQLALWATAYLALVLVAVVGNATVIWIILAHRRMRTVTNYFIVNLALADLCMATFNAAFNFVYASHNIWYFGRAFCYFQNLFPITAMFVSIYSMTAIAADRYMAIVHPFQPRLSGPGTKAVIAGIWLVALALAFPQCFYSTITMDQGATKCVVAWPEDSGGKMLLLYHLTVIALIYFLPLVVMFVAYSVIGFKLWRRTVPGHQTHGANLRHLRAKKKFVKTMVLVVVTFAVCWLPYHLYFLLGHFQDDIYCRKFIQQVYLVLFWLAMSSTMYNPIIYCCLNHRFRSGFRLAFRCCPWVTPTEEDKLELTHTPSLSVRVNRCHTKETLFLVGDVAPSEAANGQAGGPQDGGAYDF
Method: NK2 In Vitro Functional Assay (Test D)
The ability of a Compound of the invention to antagonize the action of the agonist [β-ala^8] […] Male New Zealand white rabbits are euthanized via i.v. injection into an ear vein with 60 mg/kg Nembutal (50 mg/mL). Preceding the Nembutal into the vein is Heparin (1000 units/mL) at 0.0025 mL/kg for anticoagulant purposes. The chest cavity is opened from the top of the rib cage to the stemum and a small incision is made into the heart so that the left and right pulmonary arteries can be cannulated with polyethylene tubing (PE260 and PE190 respectively). […] Responses are measured on a Grass polygraph via Grass FT-03 transducers and the electrical signals (data) acquired using a Mi^2 software/hardware system for subsequent conversion to measures of contraction. […]
For non-competitive antagonists, the percent inhibition of contraction is determined at a given concentration of the antagonist Percent inhibition is determined when a tested Compound produces a statistically significant (p<0.05) reduction of the total contraction which is calculated using the total contraction as a percent of the control value. Potencies of competitive Compounds are determined by calculating the apparent dissociation constants (KB) for each concentration tested using the standard equation: […]

[3] = target: T3, NK1 receptors (Cavia porcellus, UniProt P30547); assay: NK1 In Vivo Functional Assay (Test E), agonist-induced bronchoconstriction in anesthetized guinea pigs; set-up: species or system guinea pig; details: 120 minutes prior to agonist ASMSP, Dose Ratio of ED50 in presence/absence of antagonist
T3 construct: from tissue; host or cells: whole anesthetized guinea pig (airways)
Method: NK1 and NK2 In Vivo Functional Assay (Test E)
Exp. Ther., 1993, Vol 267(3), pp 1168-1175. The assay is carried out as follows.
Compounds are tested in anesthetized guinea pigs pretreated with i.v. indomethacin (10 mg/kg, 20 min.), propranolol (0.5 mg/kg, 15 min.), and thiorphan (10 mg/kg, 10 min).
Antagonists or vehicle are administered i.v. and orally, 30 and 120 minutes prior to increasing concentrations of agonist, respectively. The agonists used in these studies are ASMSP (Ac-[Arg^6,Sar^9,Met(O2)^11]-SP(6-11)) and BANK (β-ala-8 NKA4-10).
Administered i.v., ASMSP is selective for NK1 receptors, and BANK is selective for NK2 receptors. Maximum response is defined as zero conductance (GL, 1/Rp). ED50 values are calculated (the dose of agonist resulting in a reduction of GL to 50% of baseline), and converted to the negative logarithm (−logED50). The ED50 values, obtained in the presence (P) and absence (A) of antagonist, are used to calculate a Dose Ratio (P/A), an expression of potency. Data are expressed as mean±SEM and statistical differences were determined using ANOVA/Tukey-Kramer and Student's t-test , with p<0.05 considered statistically significant.

T1 sequence (G1SEI7 1-407): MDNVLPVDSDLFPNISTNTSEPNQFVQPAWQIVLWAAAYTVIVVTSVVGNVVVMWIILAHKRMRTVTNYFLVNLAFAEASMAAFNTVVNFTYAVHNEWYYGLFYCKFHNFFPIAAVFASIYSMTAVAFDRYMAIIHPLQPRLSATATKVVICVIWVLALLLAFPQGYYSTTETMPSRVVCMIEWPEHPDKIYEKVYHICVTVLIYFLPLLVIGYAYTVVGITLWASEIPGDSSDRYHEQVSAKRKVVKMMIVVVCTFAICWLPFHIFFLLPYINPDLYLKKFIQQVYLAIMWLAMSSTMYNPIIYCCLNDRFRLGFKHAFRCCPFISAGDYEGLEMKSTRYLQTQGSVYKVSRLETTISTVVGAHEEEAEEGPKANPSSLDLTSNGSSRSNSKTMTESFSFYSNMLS
T3 sequence (P30547 whole entry): as the sequence (G1SEI7 1-407) above, with S176G, E186S, G329A, L342F, E368D, A369P, N376T, M395V, F399S counted along it

Compound	inhibition at 0.01 µM ([1]; inhibition of relaxation at 10^−8 M)	Kb [2]	Oral Activity (Test E) NK1 P/A [3]	Kb ([1]; -log molar KB, read-out: Rabbit Pulmonary Artery NK1 pKb (Test C) (converted))
COc1c(C#N)cc2c(c1C(=O)N(C)C[C@@H](CCN1CCC(c3ccccc3[S@+](C)[O-])CC1)c1ccc(Cl)c(Cl)c1)CCCC2 [Example 5, N-[(S)-2-(3,4-Dichlorophenyl)-4-[4-[(S)-2-methylsulfinylphenyl]-1-piperidinyl]butyl]-N-methyl-3-cyano-2-methoxy-5,6,7,8-tetrahydro-1-naphthamide]	74%	79.4 nM	454	–
CN(C[C@@H](CCN1CCC(c2ccccc2[S@+](C)[O-])CC1)c1ccc(Cl)c(Cl)c1)C(=O)c1cc(C#N)cc2c1CCCC2 [Example 6, N-[2-(S)-(3,4-Dichlorophenyl)4-[-4-[(S)-2-(methylsulfinyl)phenyl]-1-piperidinyl]butyl]-N-methyl-3-cyano-5,6,7.8-tetrahydro-1-naphthamide]	–	25.1 nM	147	5.01 nM
